# Source: patent US20220232831A1, “NOVEL NON-CODING HETEROCYCLIC AMINO ACIDS (NCHAA) AND THEIR USE AS HERBICIDES” (Fortephest Ltd., priority 2019, published 2022)
# Key:
# Marianum (Thistle) = test: Herbicidal activity on development of weeds and crops (pot test); type: in vivo, Silybum marianum; details: 32 days after application, 0 = dead, 100% = healthy
# Protocol: (§1) The experiment included 225 pots. Weed seeds were sawn in 0.3-liter pots, containing medium-heavy clay-loam soil from Newe Ya'ar Research Center organic fields (55% clay, 23% silt, 20% sand, 2% organic matter, pH 7.1). The experiment was conducted in a completely randomized design. Each treatment was replicated 5 times (5 pots). The herbicides were applied at 200 L/ha with a motorized sprayer equipped with a Tee Jet 8001E nozzle (Spraying Systems Co., North Ave., Wheaton, Ill. 60188, USA) and operated at a pressure of 300 kPa. The pots were transferred to a glasshouse 24 hours after herbicide application and were sprinkler irrigated to field capacity of the soil. The plants were grown in the glasshouse during the entire experiment. Plant development at 6, 12, 19, 26 and 32 days after application (DAA) were evaluated on a scale of 0 to 100%, in which 0 represents dead plants and 100% represents healthy plants according to plant vigor, height, and leaf color.
# (§2) Phalaris minor (Cannarygrass); Setaria verticillata (Bristlegrass); Solanum nigrum (Black nightshade) Sinapis arvensis (Mustard); Silybum marianum (Thistle); Chenopodium album (Lambsquarter); Amaranthus (Pigweed); Fodder corn; Avena sativa (Cultured oats.
# (§3) Plant development was evaluated on a scale of 0 to 100%, in which 0 represents dead plants and 100% represents healthy plants according to plant vigor, height, and leaf color.
# [1] = system: Romaine lettuce (Lactuca sativa L.) plants; test: Post-emergency herbicidal activity on Romaine lettuce plants; type: in vivo; details: Romaine lettuce at stage 2 to 3 leaves; compound in 0.1% Silwet, up to 0.5%; visual evaluation vs control plants
# Summary of the method: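 Plants at the 2 to 3 leaf stage were treated with compound in 0.1% aqueous Silwet at 0.0% (Control) to 0.5%, with 20 to 40 plants per test. Vigor, height and leaf color were scored 0 (dead) to 100 (healthy) at 7, 14 and 21 DAA, and aboveground wet weight was measured.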
# [2] = system: Phalaris minor (Cannarygrass); test: Herbicidal activity on development of weeds and crops (pot test); type: in vivo; details: 32 days after application, 0 = dead, 100% = healthy
# Protocol: as §1, §2, §3
# [3] = system: Sinapis arvensis (Mustard); test: as above; type: in vivo; details: 32 days after application, 0 = dead, 100% = healthy
# Protocol: as §1, §2, §3
# [4] = system: Amaranthus blitoides (Pigweed); test: as above; type: in vivo; details: 32 days after application, 0 = dead, 100% = healthy
# Protocol: as §1, §2, §3
# [5] = system: Avena sativa (Cultured oats); test: as above; type: in vivo; details: Avena sativa (crop); 32 days after application; 0 = dead, 100% = healthy
# Protocol: as §1, §2, §3
# [6] = system: Chenopodium album (Lambsquarter); test: as above; type: in vivo; details: 32 days after application, 0 = dead, 100% = healthy
# Protocol: as §1, §2, §3
# [7] = system: Setaria verticillata (Bristlegrass); test: as above; type: in vivo; details: 32 days after application, 0 = dead, 100% = healthy
# Protocol: as §1, §2, §3
# Fodder Corn = test: as above; type: in vivo; details: Fodder corn (crop); 32 days after application; 0 = dead, 100% = healthy
# Protocol: as §1, §2, §3
# [8] = system: Solanum nigrum (Black nightshade); test: as above; type: in vivo; details: 32 days after application, 0 = dead, 100% = healthy
# Protocol: as §1, §2, §3
# [9] = system: Seeds of Lettuce R. (Super-Jericho); test: Filter paper bioassay with lettuce seeds (germination and early plant development); type: in vivo; details: lettuce seeds on filter paper; 1, 0.1, 0.01, 0.001 mM; radicle and shoots assessed after 6 days
# Summary of the method: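 Lettuce seeds (10 per plate) were placed on filter paper with 2.0 ml water or test material at 1, 0.1, 0.01 or 0.001 mM. Plates were kept dark for 48 h, then grown 4 days at 22° C under a 6/18 dark/light cycle. At day 6, radicle and shoot development was scored visually; MEC is the lowest concentration causing deviation from control.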
structure (smiles),measurement,setting,value
"NC(Cc1ccnc(Br)c1)C(=O)O (centres unmarked) [Code 632, 2-amino-3-(2-bromopyridin-4-yl)propanoic acid]",Plants' Development (% of Control group) following treatment with NCHAAs,Marianum (Thistle),15%
same,post-emergency herbicidal activity (Activity Index: plant's development vs Control),[1],Maximal (Less than 15)
same,Plants' Development (% of Control group) following treatment with NCHAAs,[2],10%
same,Plants' Development (% of Control group) following treatment with NCHAAs,[3],80%
same,Plants' Development (% of Control group) following treatment with NCHAAs,[4],100%
same,Plants' Development (% of Control group) following treatment with NCHAAs,[5],100%
same,Plants' Development (% of Control group) following treatment with NCHAAs,[6],20%
same,Plants' Development (% of Control group) following treatment with NCHAAs,[7],20%
same,Plants' Development (% of Control group) following treatment with NCHAAs,Fodder Corn,100%
same,Plants' Development (% of Control group) following treatment with NCHAAs,[8],25%
same,"Minimal Effective Concentration (MEC) as activity score, seeds germination & early plants development",[9],Strong (0.1 mM)
